Measurements taken from US20100272814A1, “METHOD AND MEANS FOR PRODUCING BRONCHORELAXATION” (priority 2007, published 2010).

Key:
[1] = cited from earlier work; for absorption of the oral intake / oral dose: from food or intestine
[2] = system: airway obstruction in a patient with COPD; test: Administration of iodine on activated charcoal to a patient with COPD (spirometric evaluation and symptoms); assay type: in vivo, human; conditions: oral intake for a few days, subjective observation

Compound | half time in whole body ([1]; in vivo) | absorption of the oral intake / oral dose [1] | bronchorelaxing effect / relief of airway obstruction [2]
[CH3][Hg][Cl] [Methylmercury] | around 70 days | about 95% | 
II [elemental iodine] |  |  | no distinct bronchorelaxing effect was observed
[Cl][Hg][Cl] [mercuric chloride] |  | about 7% | 
